# In patent US12252701B2, “Chimeric antigen receptor T cell therapy” (KITE PHARMA, INC., priority 2020, dated 2025):
# Where two headings read alike, the source gives them in different places.
# What was measured:
# [1] = cited from earlier work
# CD19 CAR T cells = test: CAR T cell cytokine production (Luminex) under CD19 K562, KIP-1 or CD2/3/28 stimulation
# Description: Cryopreserved healthy donor CLP CD19 CAR T cells were thawed and rested overnight in 100 U/ml of IL-2 at 1×10^6/ml. 2.5×10^5 CD19 CART cells were plated in 96-well RB plate wells in a total volume of 200 μl of R10 culture media. […] CD19 CART cell cytokine production was allowed to proceed through 72 hours in the presence of stimulator and JAKi or steroid. Following 72 h of culture, 100 μl of the cell supernatant of each well were harvested and stored at −80° C. for later Luminex/Bioplex-200 cytokine analysis. Briefly, stored supernatants were thawed and 50 μl of the sample was assayed for cytokines using a ThermoFisher Procarta Plex 19-plex human cytokine assay kit (ThermoFisher, Carlsbad, CA) according to kit manufacturer's instructions and detected using a BioRad Bioplex-200 instrument. The data points generated from the luminex cytokine assay were transferred to a GraphPad PRISM IC50 dose-response curve analysis to generate IC50 or potency values for the JAKi's and steroids tested.
# [2] = tested on: NALM6.GFP.LUC.CD19 target cells; test: Serial killing assay; type: cell-based, human
# Description: CD19 CAR-T cells were thawed in RPMI media supplemented with HEPES, Penicillin/Streptomycin/L-Glutamine and 10% FBS and rested overnight. The following day, drugs were serially diluted and prepared in 96-well plates. Rested T cells were counted and normalized so that 25,000 or 8,333 T cells were plated with 25,000 NALM6.GFP.LUC.CD19 target cells (1:1 or 1:3 Effector:Target ratio) in the prepared 96-well plates. At 16 hour post-incubation and every 3-4 days, T cell killing of targets was measured via luciferase detection. D-luciferin substrate was added to the co-culture wells at a final concentration of 0.14 mg/mL and plates were incubated at 37° C. in the dark for 10 minutes. Luminescent signal was read immediately after in a VarioSkan™ LUX microplate reader. T cell-mediated cytotoxicity was calculated as follows: % Cytotoxicity=[1−luciferase signal of (sample of interest/target alone control)]*100. Afterwards, co-cultures were stained with LIVE/DEAD and antibodies against CD4, CD8 and KIP-1 and then washed. Cells were then analyzed and quantified via the Attune NxT flow cytometer. T cells were then repeatedly stimulated with fresh 25,000 target cells, and this process was repeated every 3-4 days.
# CAR-T cells = test: CAR-T cell expansion assay (KIP-1 or CD3/CD28 stimulation)
# [3] = E:T ratio 1:3, all doses tested
smiles,measurement,setting,value
Nc1nc2cccc(-c3ccc(CN4CCS(=O)(=O)CC4)cc3)n2n1 [GS-829845],Cmax,"[1]; clinical dosing, patient sera, repeat dose studies",3540 ng/mL
same,Protein binding,"[1]; plasma protein binding, reported",~58%
same,suppression of cytokine production from CAR T cells (breadth and magnitude),CD19 CAR T cells,weaker in activity compared to filgotinib and other JAK inhibitors
same,"Suppression of cytokine production, IL-6 (IC50)","CD19 CAR T cells; CD3/CD28 stimulation, 72 h",Suppress
same,"Suppression of cytokine production, MCP-1 (IC50)","CD19 CAR T cells; CD3/CD28 stimulation, 72 h",Suppress
same,"Suppression of cytokine production, TNFa (IC50)","CD19 CAR T cells; CD3/CD28 stimulation, 72 h",Suppress
same,"Suppression of cytokine production, IL-6 (IC50)","CD19 CAR T cells; K562-CD19 stimulation, 72 h",Suppress
same,"Suppression of cytokine production, MCP-1 (IC50)","CD19 CAR T cells; K562-CD19 stimulation, 72 h",Suppress
same,"Suppression of cytokine production, MIG (IC50)","CD19 CAR T cells; K562-CD19 stimulation, 72 h",Suppress
same,"Suppression of cytokine production, TNFa (IC50)","CD19 CAR T cells; K562-CD19 stimulation, 72 h",Suppress
same,"Suppression of cytokine production, IL-6 (IC50)","CD19 CAR T cells; KIP-1 stimulation, 72 h",Suppress
same,"Suppression of cytokine production, MCP-1 (IC50)","CD19 CAR T cells; KIP-1 stimulation, 72 h",Suppress
same,"Suppression of cytokine production, TNFa (IC50)","CD19 CAR T cells; KIP-1 stimulation, 72 h",Suppress
same,IC50,"CD19 CAR T cells; read-out: Suppression of cytokine production, GMCSF (IC50), CD3/CD28 stimulation, 72 h",> 10 µM
same,IC50,"CD19 CAR T cells; read-out: Suppression of cytokine production, GMCSF (IC50), K562-CD19 stimulation, 72 h",> 10 µM
same,IC50,"CD19 CAR T cells; read-out: Suppression of cytokine production, GMCSF (IC50), KIP-1 stimulation, 72 h",> 10 µM
same,IC50,"CD19 CAR T cells; read-out: Suppression of cytokine production, GzB (IC50), CD3/CD28 stimulation, 72 h",> 10 µM
same,IC50,"CD19 CAR T cells; read-out: Suppression of cytokine production, GzB (IC50), K562-CD19 stimulation, 72 h",> 10 µM
same,IC50,"CD19 CAR T cells; read-out: Suppression of cytokine production, GzB (IC50), KIP-1 stimulation, 72 h",> 10 µM
same,IC50,"CD19 CAR T cells; read-out: Suppression of cytokine production, IFNg (IC50), CD3/CD28 stimulation, 72 h",> 10 µM
same,IC50,"CD19 CAR T cells; read-out: Suppression of cytokine production, IFNg (IC50), K562-CD19 stimulation, 72 h",> 10 µM
same,IC50,"CD19 CAR T cells; read-out: Suppression of cytokine production, IFNg (IC50), KIP-1 stimulation, 72 h",> 10 µM
same,IC50,"CD19 CAR T cells; read-out: Suppression of cytokine production, IL-2Ra (IC50), CD3/CD28 stimulation, 72 h",4.74 µM
same,IC50,"CD19 CAR T cells; read-out: Suppression of cytokine production, IL-2Ra (IC50), K562-CD19 stimulation, 72 h",> 10 µM
same,IC50,"CD19 CAR T cells; read-out: Suppression of cytokine production, IL-2Ra (IC50), KIP-1 stimulation, 72 h",> 10 µM
same,IC50,"CD19 CAR T cells; read-out: Suppression of cytokine production, IL-8 (IC50), CD3/CD28 stimulation, 72 h",> 10 µM
same,IC50,"CD19 CAR T cells; read-out: Suppression of cytokine production, IL-8 (IC50), K562-CD19 stimulation, 72 h",> 10 µM
same,IC50,"CD19 CAR T cells; read-out: Suppression of cytokine production, IL-8 (IC50), KIP-1 stimulation, 72 h",> 10 µM
same,IC50,"CD19 CAR T cells; read-out: Suppression of cytokine production, IL-10 (IC50), K562-CD19 stimulation, 72 h",4.01 µM
same,IC50,"CD19 CAR T cells; read-out: Suppression of cytokine production, IL-10 (IC50), KIP-1 stimulation, 72 h",3.93 µM
same,IC50,"CD19 CAR T cells; read-out: Suppression of cytokine production, MIG (IC50), CD3/CD28 stimulation, 72 h",> 10 µM
same,IC50,"CD19 CAR T cells; read-out: Suppression of cytokine production, MIG (IC50), KIP-1 stimulation, 72 h",> 10 µM
same,IC50,"CD19 CAR T cells; read-out: Suppression of cytokine production, MIP-1a (IC50), CD3/CD28 stimulation, 72 h",> 10 µM
same,IC50,"CD19 CAR T cells; read-out: Suppression of cytokine production, MIP-1a (IC50), K562-CD19 stimulation, 72 h",> 10 µM
same,IC50,"CD19 CAR T cells; read-out: Suppression of cytokine production, MIP-1a (IC50), KIP-1 stimulation, 72 h",> 10 µM
same,IC50,"CD19 CAR T cells; read-out: Suppression of cytokine production, MIP-1b (IC50), CD3/CD28 stimulation, 72 h",> 10 µM
same,IC50,"CD19 CAR T cells; read-out: Suppression of cytokine production, MIP-1b (IC50), K562-CD19 stimulation, 72 h",> 10 µM
same,IC50,"CD19 CAR T cells; read-out: Suppression of cytokine production, MIP-1b (IC50), KIP-1 stimulation, 72 h",> 10 µM
same,IC50,"CD19 CAR T cells; read-out: Suppression of cytokine production, Perforin (IC50), CD3/CD28 stimulation, 72 h",> 10 µM
same,IC50,"CD19 CAR T cells; read-out: Suppression of cytokine production, Perforin (IC50), K562-CD19 stimulation, 72 h",> 10 µM
same,IC50,"CD19 CAR T cells; read-out: Suppression of cytokine production, Perforin (IC50), KIP-1 stimulation, 72 h",> 10 µM
same,T-cell counts,[2]; E:T ratio 1:1,increased T-cell counts in a dose-dependent manner
same,serial killing,[2]; E:T ratio 1:1,enhanced serial killing
same,T-cell counts,[2]; [3],no negative impacts were observed
same,serial killing,[2]; [3],no negative impacts
same,% viability,"CAR-T cells; CD3/CD28, dose 1000 nM, day 0",75%
same,% viability,"CAR-T cells; CD3/CD28, dose 1000 nM, day 4",55.6%
same,% viability,"CAR-T cells; CD3/CD28, dose 1000 nM, day 8",76.2%
same,% viability,"CAR-T cells; CD3/CD28, dose 1000 nM, day 12",88.9%
same,% viability,"CAR-T cells; CD3/CD28, dose 5000 nM, day 0",75%
same,% viability,"CAR-T cells; CD3/CD28, dose 5000 nM, day 4",56.5%
same,% viability,"CAR-T cells; CD3/CD28, dose 5000 nM, day 8",75.6%
same,% viability,"CAR-T cells; CD3/CD28, dose 5000 nM, day 12",88.8%
same,% viability,"CAR-T cells; KIP-1, dose 1000 nM, day 0",75%
same,% viability,"CAR-T cells; KIP-1, dose 1000 nM, day 4",48.4%
same,% viability,"CAR-T cells; KIP-1, dose 1000 nM, day 8",63%
same,% viability,"CAR-T cells; KIP-1, dose 1000 nM, day 12",82.5%
same,% viability,"CAR-T cells; KIP-1, dose 5000 nM, day 0",75%
same,% viability,"CAR-T cells; KIP-1, dose 5000 nM, day 4",60%
same,% viability,"CAR-T cells; KIP-1, dose 5000 nM, day 8",87%
same,% viability,"CAR-T cells; KIP-1, dose 5000 nM, day 12",81.1%
same,effect on T cell expansion,CAR-T cells; at the doses tested (Table 40),little to no effect
